Several values for one entry are separate records, joined by “and”; a condition that tells them apart may be missing. Equal entries are not always repeated.
Experiments:
Test in all cases: Two-electrode voltage-clamp of ACh-induced currents in Xenopus oocytes
Assay type in all cases: cell-based
[1] = target: (α4S258M)3(β2)2 nAChR (Homo sapiens, UniProt P43681, S258M)
Procedure: (§1) For amino acid substitutions within the α4 nAChR subunit, point mutations were introduced into pSP64ployA plasmid with cDNA encoding for human α4 nAChR subunit with mutagenic primer pairs using the Quick Change II Site-Directed Mutagenesis Kit (Agilent Technologies) then confirmed by DNA sequencing (GENEWIZ, LLC, South Plainfield, NJ). cRNA transcripts suitable for oocyte expression were prepared in vitro from linearized plasmids [α3 (BamH1), α4 (AseI), β2 (PvuII), β4 (XhoI)] using mMESSAGE mMACHINE high yield capped RNA transcription kits (Ambion) and purified on NucAway Spin column (Invitrogen). cRNA concentration was determined by spectroscopy (Concentration (ug/ul) = Abs260 * 40), aliquoted and stored at −80 °C until used.
(§2) Ovarian lobules were surgically harvested from oocytes-positive female Xenopus laevis (NASCO, Fort Atkinson, WI) according to an animal use protocol approved by the Texas A&M Health Sciences Center Institutional Animals Care and Use Committee. The Texas A&M Health Sciences Center Research Facility is registered as an animal research facility with the United States Department of Agriculture and is fully accredited by the American Association for Accreditation of Laboratory Animal Care (AAALAC). For oocytes defolliculation, ovarian lobes were treated with 3 mg/ml collagenase type 2 (Worthington Biomedical, Lakewood, NJ) in Ca + 2-free buffer (85 mM NaCl, 2.5 mM KCl, 1 mM MgCl2, 5 mM HEPES, pH 7.6). Collagenase treatment was allowed to proceed for 3 hours at room temperature with gentle shaking then oocytes were washed several times with buffer to remove collagenase then with ND96-gentamicine buffer. Healthy Stage V and VI oocytes were visually selected and maintained at 18 °C in modified ND96-gentamicine buffer (96 mM NaCl, 2 mM KCl, 1.8 mM CaCl2, 1 mM MgCl2, 5 mM HEPES, 50 µg/ml gentamicin, pH 7.6). Oocytes were injected with 50–100 ng of the desired nAChR subunits cRNA mix at ratios of 8α:1β or 1α:8β to express nAChRs with subunit stoichiometries of 3α:2β (low agonist sensitivity) or 2α:3β (high agonist sensitivity), respectively.
(§3) Oocytes were continuously perfused with recording buffer (100 mM NaCl, 2 mM KCl, 1 mM CaCl2, 0.8 mM MgCl2, 1 mM EGTA, 10 mM Hepes, pH 7.5) except during periods of drug applications.

[2] = target: (α4C259V)3(β2)2 nAChR (Homo sapiens, UniProt P43681, C259V); conditions: 10 µM ACh + 1 µM PAM vs 10 µM ACh alone
Procedure: as §1, §2, §3

[3] = target: T1, (α4I608L)3(β2)2 nAChR (Homo sapiens, UniProt P17787+P43681, I608L)
T1 construct: expressed in transfected cells; host or cells: Xenopus laevis oocytes injected with cRNA
Procedure: as §1, §2, §3

[4] = target: T2, (α4S284G)3(β2)2 nAChR (Homo sapiens, UniProt P17787+P43681, S284G)
T2 construct: expressed in transfected cells; host or cells: Xenopus laevis oocytes injected with cRNA
Procedure: as §1, §2, §3

[5] = target: T3, (α4T313C)3(β2)2 nAChR (Homo sapiens, UniProt P17787+P43681, T313C)
T3 construct: expressed in transfected cells; host or cells: Xenopus laevis oocytes injected with cRNA
Procedure: as §1, §2, §3

[6] = target: T4, (α4F606Y)3(β2)2 nAChR (Homo sapiens, UniProt P17787+P43681, F606Y)
T4 construct: expressed in transfected cells; host or cells: Xenopus laevis oocytes injected with cRNA
Procedure: as §1, §2, §3

[7] = target: T5, (α4L310F)3(β2)2 nAChR (Homo sapiens, UniProt P17787+P43681, L310F)
T5 construct: expressed in transfected cells; host or cells: Xenopus laevis oocytes injected with cRNA
Procedure: as §1, §2, §3

[8] = target: (α4L311V)3(β2)2 nAChR (Homo sapiens, UniProt P43681, L311V); conditions: 10 µM ACh + 1 µM PAM vs 10 µM ACh alone
Procedure: as §1, §2, §3

[9] = target: T6, (α4I275V)3(β2)2 nAChR (Homo sapiens, UniProt P17787+P43681, I275V)
T6 construct: expressed in transfected cells; host or cells: Xenopus laevis oocytes injected with cRNA
Procedure: as §1, §2, §3

[10] = target: T7, (α4C254S)3(β2)2 nAChR (Homo sapiens, UniProt P17787+P43681, C254S)
T7 construct: expressed in transfected cells; host or cells: Xenopus laevis oocytes injected with cRNA
Procedure: as §1, §2, §3

[11] = target: (α4G613L)3(β2)2 nAChR (Homo sapiens, UniProt P43681, G613L)
Procedure: as §1, §2, §3

[12] = target: T8, (α4I607T)3(β2)2 nAChR (Homo sapiens, UniProt P17787+P43681, I607T)
T8 construct: expressed in transfected cells; host or cells: Xenopus laevis oocytes injected with cRNA
Procedure: as §1, §2, §3

[13] = target: T9, (α4L260M)3(β2)2 nAChR (Homo sapiens, UniProt P17787+P43681, L260M)
T9 construct: expressed in transfected cells; host or cells: Xenopus laevis oocytes injected with cRNA
Procedure: as §1, §2, §3

[14] = target: T10, (α4H332Y)3(β2)2 nAChR (Homo sapiens, UniProt P17787+P43681, H332Y)
T10 construct: expressed in transfected cells; host or cells: Xenopus laevis oocytes injected with cRNA
Procedure: as §1, §2, §3

[15] = target: T11, (α4V609A)3(β2)2 nAChR (Homo sapiens, UniProt P17787+P43681, V609A)
T11 construct: expressed in transfected cells; host or cells: Xenopus laevis oocytes injected with cRNA
Procedure: as §1, §2, §3

[16] = target: T12, (α4F312V)3(β2)2 nAChR (Homo sapiens, UniProt P17787+P43681, F312V)
T12 construct: expressed in transfected cells; host or cells: Xenopus laevis oocytes injected with cRNA
Procedure: as §1, §2, §3

[17] = target: T13, (α4T261D)3(β2)2 nAChR (Homo sapiens, UniProt P17787+P43681, T261D)
T13 construct: expressed in transfected cells; host or cells: Xenopus laevis oocytes injected with cRNA
Procedure: as §1, §2, §3

[18] = target: T14, (α4M605V)3(β2)2 nAChR (Homo sapiens, UniProt P17787+P43681, M605V)
T14 construct: expressed in transfected cells; host or cells: Xenopus laevis oocytes injected with cRNA
Procedure: as §1, §2, §3

[19] = 10 µM ACh + 1 µM PAM vs 10 µM ACh alone
[20] = ACh concentration-response curve, normalized to 1 mM ACh alone
[21] = normalized to 10 µM ACh alone, not from curve fitting, maximum seen at any concentration up to 10 µM LY2087101
[22] = normalized to peak current by 10 µM ACh alone, curve fit
[23] = read-out: LY2087101 potentiation EC50

T1 sequence (P43681 29-627 I608L limits assumed): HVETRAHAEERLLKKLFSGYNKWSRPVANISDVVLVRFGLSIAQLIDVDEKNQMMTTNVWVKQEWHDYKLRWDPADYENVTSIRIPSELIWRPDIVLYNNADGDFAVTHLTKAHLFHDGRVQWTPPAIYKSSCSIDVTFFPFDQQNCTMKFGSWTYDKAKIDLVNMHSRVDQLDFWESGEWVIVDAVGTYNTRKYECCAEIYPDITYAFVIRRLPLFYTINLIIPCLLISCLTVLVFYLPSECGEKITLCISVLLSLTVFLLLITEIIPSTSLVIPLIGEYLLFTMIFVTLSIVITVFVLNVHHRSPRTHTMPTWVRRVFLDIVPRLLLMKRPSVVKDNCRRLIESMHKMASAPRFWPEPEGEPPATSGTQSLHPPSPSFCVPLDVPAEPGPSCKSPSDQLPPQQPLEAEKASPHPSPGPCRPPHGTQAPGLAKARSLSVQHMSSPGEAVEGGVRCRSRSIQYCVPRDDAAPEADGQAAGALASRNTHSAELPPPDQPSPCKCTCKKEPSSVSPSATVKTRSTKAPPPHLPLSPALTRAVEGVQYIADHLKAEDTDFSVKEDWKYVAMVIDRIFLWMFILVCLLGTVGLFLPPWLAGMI
T1 sequence (P17787 26-502): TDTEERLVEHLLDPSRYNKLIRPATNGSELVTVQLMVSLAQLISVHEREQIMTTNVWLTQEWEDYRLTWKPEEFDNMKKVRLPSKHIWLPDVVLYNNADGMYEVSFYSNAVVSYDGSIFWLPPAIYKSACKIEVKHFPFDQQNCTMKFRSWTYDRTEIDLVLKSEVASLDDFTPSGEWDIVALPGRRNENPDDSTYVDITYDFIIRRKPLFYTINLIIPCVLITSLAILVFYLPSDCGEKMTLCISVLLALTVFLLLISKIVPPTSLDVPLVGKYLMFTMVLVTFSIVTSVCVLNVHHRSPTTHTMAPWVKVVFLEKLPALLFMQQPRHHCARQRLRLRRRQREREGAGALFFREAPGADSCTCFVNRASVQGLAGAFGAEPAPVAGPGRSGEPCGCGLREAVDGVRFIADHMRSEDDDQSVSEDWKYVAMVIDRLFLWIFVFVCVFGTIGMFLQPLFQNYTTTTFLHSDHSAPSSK
T3 sequence (P43681 29-627 T313C limits assumed): as the sequence (P43681 29-627 I608L limits assumed) above, with T285C, L580I counted along it
T3 sequence (P17787 26-502): as the sequence (P17787 26-502) above
T10 sequence (P43681 29-627 H332Y limits assumed): as the sequence (P43681 29-627 I608L limits assumed) above, with H304Y, L580I counted along it
T10 sequence (P17787 26-502): as the sequence (P17787 26-502) above
T8 sequence (P43681 29-627 I607T limits assumed): as the sequence (P43681 29-627 I608L limits assumed) above, with I579T, L580I counted along it
T8 sequence (P17787 26-502): as the sequence (P17787 26-502) above
T12 sequence (P43681 29-627 F312V limits assumed): as the sequence (P43681 29-627 I608L limits assumed) above, with F284V, L580I counted along it
T12 sequence (P17787 26-502): as the sequence (P17787 26-502) above
T13 sequence (P43681 29-627 T261D limits assumed): as the sequence (P43681 29-627 I608L limits assumed) above, with T233D, L580I counted along it
T13 sequence (P17787 26-502): as the sequence (P17787 26-502) above
T4 sequence (P43681 29-627 F606Y limits assumed): as the sequence (P43681 29-627 I608L limits assumed) above, with F578Y, L580I counted along it
T4 sequence (P17787 26-502): as the sequence (P17787 26-502) above
T9 sequence (P43681 29-627 L260M limits assumed): as the sequence (P43681 29-627 I608L limits assumed) above, with L232M, L580I counted along it
T9 sequence (P17787 26-502): as the sequence (P17787 26-502) above
T14 sequence (P43681 29-627 M605V limits assumed): as the sequence (P43681 29-627 I608L limits assumed) above, with M577V, L580I counted along it
T14 sequence (P17787 26-502): as the sequence (P17787 26-502) above
T2 sequence (P43681 29-627 S284G limits assumed): as the sequence (P43681 29-627 I608L limits assumed) above, with S256G, L580I counted along it
T2 sequence (P17787 26-502, stated change not applied): as the sequence (P17787 26-502) above
T7 sequence (P43681 29-627 C254S limits assumed): as the sequence (P43681 29-627 I608L limits assumed) above, with C226S, L580I counted along it
T7 sequence (P17787 26-502): as the sequence (P17787 26-502) above
Chain of (α4S258M)3(β2)2 nAChR (P43681 29-627 S258M limits assumed): as the sequence (P43681 29-627 I608L limits assumed) above, with S230M, L580I counted along it
Chain of (α4S258M)3(β2)2 nAChR (P17787 26-502 partner): as the sequence (P17787 26-502) above
T6 sequence (P43681 29-627 I275V limits assumed): as the sequence (P43681 29-627 I608L limits assumed) above, with I247V, L580I counted along it
T6 sequence (P17787 26-502): as the sequence (P17787 26-502) above
Chain of (α4G613L)3(β2)2 nAChR (P43681 29-627 G613L limits assumed): as the sequence (P43681 29-627 I608L limits assumed) above, with L580I, G585L counted along it
Chain of (α4G613L)3(β2)2 nAChR (P17787 26-502 partner): as the sequence (P17787 26-502) above
T5 sequence (P43681 29-627 L310F limits assumed): as the sequence (P43681 29-627 I608L limits assumed) above, with L282F, L580I counted along it
T5 sequence (P17787 26-502): as the sequence (P17787 26-502) above
T11 sequence (P43681 29-627 V609A limits assumed): as the sequence (P43681 29-627 I608L limits assumed) above, with L580I, V581A counted along it
T11 sequence (P17787 26-502): as the sequence (P17787 26-502) above
Chain of (α4C259V)3(β2)2 nAChR (P43681 29-627 C259V limits assumed): as the sequence (P43681 29-627 I608L limits assumed) above, with C231V, L580I counted along it
Chain of (α4C259V)3(β2)2 nAChR (P17787 26-502 partner): as the sequence (P17787 26-502) above
Chain of (α4L311V)3(β2)2 nAChR (P43681 29-627 L311V limits assumed): as the sequence (P43681 29-627 I608L limits assumed) above, with L283V, L580I counted along it
Chain of (α4L311V)3(β2)2 nAChR (P17787 26-502 partner): as the sequence (P17787 26-502) above

SMILES: Cc1nc(Nc2ccc(F)cc2)sc1C(=O)c1ccsc1 [LY2087101, [2-[(4-Fluorophenyl)amino]-4-methyl-5-thiazolyl]-3-thienylmethanone]
- R, potentiation ratio (PR) [1, 19]: 1.5 ± 0.2
- ACh Imax in the presence of 1 µM LY2087101 [1, 20]: 232 ± 10%
- LY2087101 potentiation Imax% [1, 21]: 254 ± 12%
- R, potentiation ratio (PR) [2]: 5.2 ± 0.6
- R, potentiation ratio (PR) [3, 19]: 4.4 ± 0.6
- LY2087101 potentiation Imax% [3, 22]: 840 ± 31%
- EC50 [3, 23]: 1.2 ± 0.1 µM
- R, potentiation ratio (PR) [4, 19]: 3.8 ± 0.4
- LY2087101 potentiation Imax% [4, 22]: 537 ± 20%
- EC50 [4, 23]: 0.7 ± 0.1 µM
- R, potentiation ratio (PR) [5, 19]: 2.1 ± 0.2
- LY2087101 potentiation Imax% [5, 22]: 196 ± 23%
- EC50 [5, 23]: 0.7 ± 0.1 µM
- R, potentiation ratio (PR) [6, 19]: 2.3 ± 0.3
- ACh Imax in the presence of 1 µM LY2087101 [6, 20]: 144 ± 13% and 144 ± 013%
- LY2087101 potentiation Imax% [6, 22]: 195 ± 13%
- EC50 [6, 23]: 0.3 ± 0.2 µM
- R, potentiation ratio (PR) [7, 19]: 9.8 ± 1.0
- EC50 [7, 23]: 3.1 ± 0.1 µM
- R, potentiation ratio (PR) [8]: 15.6 ± 3.2
- R, potentiation ratio (PR) [9, 19]: 3.7 ± 0.5
- EC50 [9, 23]: 1.7 ± 0.2 µM
- R, potentiation ratio (PR) [10, 19]: 8.4 ± 1.5
- ACh Imax in the presence of 1 µM LY2087101 [10, 20]: 185 ± 04%
- EC50 [10, 23]: 1.7 ± 0.2 µM
- R, potentiation ratio (PR) [11, 19]: 1.09 ± 0.1
- ACh Imax in the presence of 1 µM LY2087101 [11, 20]: 112 ± 9%
- R, potentiation ratio (PR) [12, 19]: 5.8 ± 0.7
- LY2087101 potentiation Imax% [12, 22]: 958 ± 32%
- EC50 [12, 23]: 0.8 ± 0.1 µM
- R, potentiation ratio (PR) [13, 19]: 1.6 ± 0.2
- ACh Imax in the presence of 1 µM LY2087101 [13, 20]: 264 ± 80%
- LY2087101 potentiation Imax% [13, 22]: 269 ± 21%
- EC50 [13, 23]: 2.5 ± 0.6 µM
- R, potentiation ratio (PR) [14, 19]: 4.2 ± 0.5
- LY2087101 potentiation Imax% [14, 22]: 573 ± 20%
- EC50 [14, 23]: 1.3 ± 0.1 µM
- R, potentiation ratio (PR) [15, 19]: 5.7 ± 1.1
- EC50 [15, 23]: 1 ± 0.3 µM
- R, potentiation ratio (PR) [16, 19]: 2.5 ± 0.2
- LY2087101 potentiation Imax% [16, 21]: 269 ± 43%
- EC50 [16, 23]: 0.1 ± 0.01 µM
- R, potentiation ratio (PR) [17, 19]: 1.6 ± 0.1
- ACh Imax in the presence of 1 µM LY2087101 [17, 20]: 180 ± 23%
- LY2087101 potentiation Imax% [17, 22]: 215 ± 29%
- EC50 [17, 23]: 2.4 ± 1.6 µM
- R, potentiation ratio (PR) [18, 19]: 3.8 ± 1.1
- LY2087101 potentiation Imax% [18, 22]: 856 ± 3%
- EC50 [18, 23]: 2.7 ± 0.02 µM

Source: PMC5775429, “LY2087101 and dFBr share transmembrane binding sites in the (α4)3(β2)2 Nicotinic Acetylcholine Receptor” (Scientific Reports, 2018)
